Measurements: PubChem BioAssay (NCI)
“And” between values parts separate entries of the source, which are not always exact repeats. Equal values may be shown once.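 48-hour exposure; five concentrations; linearly interpolated endpoints. TGI: concentration producing complete growth inhibition.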

Each compound was assayed on M14 melanoma (assay: inhibition of tumour cell growth, NCI panel, 48 h).
COc1cc(OC)c(C2c3cc4c(cc3OC(N3CCCC3)C2C)OCO4)c(OC)c1 (configuration not stated) was tested, and the TGI was 28.6 µM. With C=C1CN2CC(=C)CN(C1)CS(=O)(=O)N1CC(=C)CN(CC(=C)C1)S(=O)(=O)N1CC(=C)CN(CC(=C)C1)S(=O)(=O)C2 the TGI was over 100 µM. For O=C(O)/C=c1/c2ccccc2n2nc3ccccc3c12, the TGI was over 100 µM. Cn1c2ccccc2c(=NNc2cccc(C(=O)O)c2)c2ccccc21 was tested, and the TGI was 39.1 µM. Work on Cn1c(COC(=O)Nc2ccccc2)c(COC(=O)Nc2ccccc2)c2ccc3cc(Cl)c(Cl)cc3c21 yielded a TGI of 19.6 µM.

What follows are compounds tested on PC-3 prostate (assay: inhibition of tumour cell growth, NCI panel, 48 h).
With C=C1C(=O)C=C[C@]2(C)CC[C@H]3C(=C)C(=O)O[C@@H]3[C@@H]12 the TGI was 15.7 µM. In the case of COc1ccc(C2OC(c3ccncc3)=NN2C)cc1OC (configuration not stated), the TGI is reported as over 100 µM. For CC12CCC(O)CC1CCC1C2CCC2(C)C(C(=O)CC(O)C(F)(F)F)CCC12 (configuration not stated), the TGI was over 100 µM. CC(C)(C)OC(=O)NCCCNC1(c2cc3ccccc3s2)CCCCC1 was tested, and the TGI was 47.6 µM. COc1ccc(N2C(=O)CSC2c2c[nH]c3ccccc23)cc1 (configuration not stated) gave a TGI of over 100 µM. COC1C=COC2(C)Oc3c(C)c(O)c4c(O)c(c(C5SCCS5)c(O)c4c3C2=O)NC(=O)C(C)=C/C=C\C(C)C2OC(C)(C)OC(C2C)C(C)C(OC(C)=O)C1C (configuration not stated) showed a TGI of over 100 µM. CC(C)(C)C(=O)CC1=Nc2ccccc2SC1(O)CC(=O)C(C)(C)C (configuration not stated) was tested, and the TGI was 73.6 µM. N#CC1=C(N)N(c2ccccc2)C(c2ccccc2)C1(C#N)C#N (configuration not stated) was tested, and the TGI was 40.3 µM. In the case of C=CCOc1ccc(C2(O)c3ccccc3C3=NCCCN32)cc1 (configuration not stated), the TGI is reported as over 100 µM. In the case of CCOC(=O)NC(Nc1ccc([N+](=O)[O-])cc1)(C(F)(F)F)C(F)(F)F, the TGI is reported as over 100 µM. Work on O=C1/C(=C/c2ccc(Cl)cc2)CSc2ccccc21 yielded a TGI of 44.5 µM. With CCC/C(Cl)=N\OC(=O)Nc1ccc(OC(F)(F)F)cc1 the TGI was 32.8 µM. With CCCCN=C(c1ccccc1)N1CCOCC1 the TGI was over 100 µM. CSc1ncnc2c1ncn2CCC#N gave a TGI of over 100 µM. C[N+]12CCCCC1C(CN1C(=O)Cc3c4ccccc4c(c4ccccc34)CC1=O)CCC2 (configuration not stated) was tested, and the TGI was over 100 µM. COc1cccc(/C=N/n2c(C)n[nH]c2=O)c1 showed a TGI of over 100 µM. In the case of CC(=O)O[C@H]1CC[C@@]2(C)C(=CC[C@H]3[C@@H]4C[C@H](N5CCOCC5)[C@H](OC(C)=O)[C@@]4(C)CC[C@@H]32)C1, the TGI is reported as over 100 µM. Compound CC(C)CC(O)P(=O)(O)O (configuration not stated) has a TGI of over 100 µM. For CCC1(C)C=Cc2c(cc(O)c3c(=O)c4ccccc4n(C)c23)O1 (configuration not stated), the TGI was over 10 µM. With Cc1ccc(S(=O)(=O)NC(=O)N[C@@H](Cc2cnc[nH]2)C(=O)O)cc1 the TGI was over 100 µM. CC1CCCC(CC(=O)O)(CC(=O)O)C1 (configuration not stated) gave a TGI of over 100 µM. Work on CC(C)(Cl)C(Br)CCC(=CCCl)CBr (mixture of isomers) yielded a TGI of 7.22 µM. In the case of CC(=O)OCC1OC(n2c3c(cc(C#N)c2=S)CCCCC3)C(OC(C)=O)C(OC(C)=O)C1OC(C)=O (configuration not stated), the TGI is reported as over 100 µM. In the case of Nc1[nH]nc2nc3ccc(C(F)(F)F)cc3nc12, the TGI is reported as over 100 µM. In the case of CCN1CCC(O)(/C=C/c2ccc(C)cc2C)C(C(=O)/C=C/c2ccc(C)cc2C)C1 (configuration not stated), the TGI is reported as 9.17 µM. Work on O=[N+]([O-])/C(C(Cl)=C(Cl)Cl)=C(\N1CCCCC1)n1cncn1 yielded a TGI of 31.7 µM. S=C(Nc1ccc2c(c1)oc1ccccc12)c1cccnc1 was tested, and the TGI was over 100 µM. For O=C1c2cccnc2-c2nccc3c2c1nc1cc(Br)ccc13, the TGI was 1.12 µM. Compound NC(CCC(=O)NC(CSCC1C(=O)Nc2ccccc21)C(=O)NCC(=O)O)C(=O)O (configuration not stated) has a TGI of 49 µM. NNC(=O)CSc1nc2ccccc2c(=O)n1N was tested, and the TGI was over 100 µM. In the case of Cc1cc(S(=O)(=O)Nc2nc3cc(-c4ccc(Cl)cc4)sc3c(=O)n2N)c(S)cc1Cl, the TGI is reported as over 100 µM. Compound CCC(=O)ONC(=O)Cn1ccc([N+](=O)[O-])n1 has a TGI of over 100 µM. In the case of CC(=O)NC1c2ccccc2C(C)(C)C12CCC1(CC2)OCCO1 (configuration not stated), the TGI is reported as over 100 µM. With [N-]=[N+]=NC1=C(c2ccccn2)C(=O)c2cccc3cccc1c23 the TGI was over 100 µM. For CC1=NNC(=O)C1C(CC(=O)c1c[nH]c2ccccc12)C(=O)O (configuration not stated), the TGI was over 100 µM. Work on Cc1ccc(O)c(-c2cscn2)c1 yielded a TGI of over 100 µM. For C=C([C@@]1(O)C[C@H]2[C@H](CCC2(OC)OC)[C@@H]2c3ccccc3O[C@@H]21)[Si](C)(C)C, the TGI was over 100 µM. O=C(O)c1ccc(OCc2nc3cc(C(F)(F)F)ccc3nc2-c2ccccc2)cc1 gave a TGI of over 100 µM. COc1ccc2c(c1)CCN1CCc3ccccc3CC21 (configuration not stated) was tested, and the TGI was over 100 µM. Compound CN1COCc2c1ccc1cc3ccc4c(c3nc21)COCN4S(C)(=O)=O has a TGI of over 100 µM. Oc1cccc(-c2nc3cc(F)ccc3s2)c1 gave a TGI of 65 µM. Compound CN(C)c1ccc(C2SCC(=O)N2c2ccc(Oc3ccc(Cl)cc3)c(Cl)c2)cc1 (configuration not stated) has a TGI of 55.6 µM. In the case of CC(C(O)Cc1ccccc1)N(C)N=Nc1ccc([N+](=O)[O-])cc1 (configuration not stated), the TGI is reported as 40.5 µM. COc1ccc(/C=C2\N=C(SC)NC2=O)cc1 showed a TGI of over 100 µM. With CC(C)NC(=O)OCCN=c1c2ccccc2ccc2ccccc12 the TGI was 72.5 µM. For CN(C)CCOC1(Cc2ccc(F)cc2)CCC(C(C)(C)C)CC1 (configuration not stated), the TGI was 17.4 µM and 19 µM. In the case of Nc1ccc(C(=O)N2CCC[C@H]2CO)c(N)c1, the TGI is reported as over 100 µM.
